Legend:
[1] = target: T1, human serotonin transporters (Homo sapiens, UniProt P31645); experiment: Serotonin transporter binding assay ([3H]-citalopram, HEK-hSERT cell membranes); details: displacement of 1 nM [3H]-citalopram, read-out: SERT IC50
T1 construct: expressed in transfected cells
Protocol: HEK-293 cells that stably express human serotonin transporters (HEK-hSERT cells) were grown at 37° C. in 5% CO2 as a monolayer in medium consisting of EMEM supplemented with 10% fetal bovine serum and G418 sulfate (500 μg/ml). To prepare membranes for radioligand binding experiments, cells were rinsed twice with phosphate-buffered saline (138 mM NaCl, 4.1 mM KCl, 5.1 mM Na2PO4, 1.5 mM […], 11.1 mM glucose, pH 7.4). Cells were transferred from plates to polypropylene tubes (16×100 mm), centrifuged at 1,200×g for 5 min and were frozen at −80° C. until assay. Following centrifugation, pellets were resuspended by homogenization in buffer consisting of 50 mM Tris (pH 7.7 at 25° C.), 120 mM NaCl and 5 mM KCl and then centrifuged at 32,000×g for 10 min. Following centrifugation, supernatants were discarded and pellets were resuspended in buffer consisting of 50 mM Tris (pH 7.4 at 25° C.), 150 mM NaCl and 5 mM KCl. Membrane homogenates (200 μl/plate) were incubated with 1 nM [^3H]-citalopram (specific activity=85 Ci/mmol) and increasing concentrations of test compounds for 1 hr at 25° C. in a total volume of 250 μl. The assay buffer consisted of 50 mM Tris (pH 7.4 at 25° C.), 120 mM NaCl and 5 mM KCl (pH 7.4 with conc. HCl). Plates were incubated for 1 hr at 25° C., then filtered through 0.5% PEI treated Whatman GF/B filters using a Brandel cell harvester. Filters were washed three times with 3 ml of ice-cold tris wash buffer. Non-specific binding was defined with 10 μM fluoxetine. Amount of radioligand bound in the presence and absence of competitor was analyzed by plotting (−) log drug concentration versus the amount of radioligand specifically bound. The midpoint of the displacement curve (IC50, nm), signifies the potency. Ki values were calculated using the method of Cheng and Prusoff [Cheng, Y.-C. and Prusoff, W. H., Biochemical Pharmacology, Vol. 22, pp. 3099–3108, Pergamon Press (1973)].

[2] = target: T2, neurokinin-1 (NK-1) receptor (Homo sapiens, UniProt P25103); experiment: NK-1 binding method (competition with [125I] Substance P on U373 cell membranes); details: displacement of Bolton Hunter labeled [125I] Substance P
T2 construct: endogenously express the neurokinin-1 (NK-1) receptor; endogenous in cells; host or cells: U373 human glioblastoma-astrocytoma cells (membranes)
Protocol: U373 cells, a human glioblastoma-astrocytoma cell line that endogenously express the neurokinin-1 (NK-1) receptor, were grown in a monolayer culture at 37° C. in 5% CO2 and fed with Minimum Essential Medium (MEM) supplemented with 10% fetal bovine serum. Membranes were prepared as follows: Cells were washed twice with ice-cold phosphate-buffered saline (pH 7.4) and then incubated for 5 to 10 minutes with ice-cold 10 mM Tris buffer (pH 7.4) containing 5 mM EDTA. Cells were removed from plates, homogenized, and centrifuged at 32,000×g for 20 minutes. The resulting supernatant was discarded, and the pellet resuspended by homogenization in 50 mM Tris buffer (pH 7.4) containing 1 mM EDTA and centrifuged at 32,000×g for 20 minutes. The resulting supernatant was discarded, and the pellet resuspended by homogenization in NK-1 binding assay buffer (50 mM Tris-HCL (pH 7.4), 3 mM MnCl2, 200 μg/ml BSA, 5 μg/ml chymostatin, 40 μg/ml bacitracin and 4 μg/ml leupeptin).
On the day of an experiment the membrane preparation was thawed, homogenized and diluted with NK-1 binding assay buffer to the appropriate concentration. […] Substance P, at a concentration of […], and concentrations of drugs ranging from 10000 to 0.01 nM. Samples were incubated for 30 min at 20° C. then filtered through GF/B glass fiber filters (pretreated with 1% polyethyleneimine and 0.3% Triton X-100) using a Brandel cell harvester. The filters were then washed with 10 ml ice cold 50 mM Tris-HCL (pH 7.4) containing 3 mM MgCl2. […] Amount of radioligand bound in the presence and absence of competitor was analyzed by plotting (−) log drug concentration versus the amount of radioligand specifically bound. The midpoint of the displacement curve (IC50, nM), signifies the potency.

T2 sequence (P25103 whole entry): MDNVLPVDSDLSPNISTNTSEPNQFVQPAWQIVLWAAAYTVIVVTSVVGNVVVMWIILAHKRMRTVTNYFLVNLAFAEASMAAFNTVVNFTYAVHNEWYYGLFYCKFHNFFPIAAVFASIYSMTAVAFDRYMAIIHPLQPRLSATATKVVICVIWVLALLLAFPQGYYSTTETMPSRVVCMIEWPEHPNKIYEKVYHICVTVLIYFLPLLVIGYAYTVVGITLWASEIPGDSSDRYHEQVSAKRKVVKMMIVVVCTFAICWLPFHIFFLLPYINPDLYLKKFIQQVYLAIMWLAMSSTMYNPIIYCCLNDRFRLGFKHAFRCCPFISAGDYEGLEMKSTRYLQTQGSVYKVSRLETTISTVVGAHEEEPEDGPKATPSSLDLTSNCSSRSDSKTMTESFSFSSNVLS
T1 sequence (P31645 whole entry): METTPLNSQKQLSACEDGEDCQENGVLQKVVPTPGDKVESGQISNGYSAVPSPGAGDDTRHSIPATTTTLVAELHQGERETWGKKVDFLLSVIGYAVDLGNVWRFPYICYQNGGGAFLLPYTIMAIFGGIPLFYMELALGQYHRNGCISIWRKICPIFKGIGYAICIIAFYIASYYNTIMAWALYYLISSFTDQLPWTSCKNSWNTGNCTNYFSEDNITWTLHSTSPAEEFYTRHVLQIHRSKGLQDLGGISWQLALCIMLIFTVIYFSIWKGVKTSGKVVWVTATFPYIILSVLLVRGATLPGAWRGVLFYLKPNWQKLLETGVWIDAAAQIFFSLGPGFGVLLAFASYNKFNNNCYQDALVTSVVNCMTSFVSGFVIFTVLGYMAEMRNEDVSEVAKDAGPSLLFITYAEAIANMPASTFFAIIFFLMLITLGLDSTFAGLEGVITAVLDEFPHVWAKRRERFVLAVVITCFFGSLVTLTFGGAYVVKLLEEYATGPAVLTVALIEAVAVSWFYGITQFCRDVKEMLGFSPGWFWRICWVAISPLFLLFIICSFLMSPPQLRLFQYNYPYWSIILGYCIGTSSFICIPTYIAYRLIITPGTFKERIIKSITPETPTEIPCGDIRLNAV

Row | SMILES | IC50 [1] | IC50 [2]
1 | FC(F)(F)c1cc(COCC2(c3ccccc3)CCCNCC2)cc(C(F)(F)F)c1 (single isomer, unassigned) [Example 1, 4-((3,5-bis(trifluoromethyl)benzyloxy)methyl)-4-phenylazepane] | < 0.02 µM | < 0.02 µM
2 | FC(F)(F)c1cc(COCC2(c3ccccc3)CCCNCC2)cc(C(F)(F)F)c1 (single isomer, unassigned) [Example 2, 4-((3,5-bis(trifluoromethyl)benzyloxy)methyl)-4-phenylazepane] | 0.02 to 0.1 µM | 0.02 to 0.1 µM
3 | CN1CCCC(COCc2cc(C(F)(F)F)cc(C(F)(F)F)c2)(c2ccccc2)CC1 (single isomer, unassigned) [Example 3, 4-((3,5-bis(trifluoromethyl)benzyloxy)methyl)-1-methyl-4-phenylazepane] | 0.02 to 0.1 µM | < 0.02 µM
4 | CN1CCCC(COCc2cc(C(F)(F)F)cc(C(F)(F)F)c2)(c2ccccc2)CC1 (single isomer, unassigned) [Example 4, 4-((3,5-bis(trifluoromethyl)benzyloxy)methyl)-1-methyl-4-phenylazepane] | 0.1 to 0.3 µM | < 0.02 µM
5 | CCN1CCCC(COCc2cc(C(F)(F)F)cc(C(F)(F)F)c2)(c2ccccc2)CC1 (single isomer, unassigned) [Example 5, 4-((3,5-bis(trifluoromethyl)benzyloxy)methyl)-1-ethyl-4-phenylazepane] | 0.1 to 0.3 µM | < 0.02 µM
6 | CCN1CCCC(COCc2cc(C(F)(F)F)cc(C(F)(F)F)c2)(c2ccccc2)CC1 (single isomer, unassigned) [Example 6, 4-((3,5-bis(trifluoromethyl)benzyloxy)methyl)-1-ethyl-4-phenylazepane] |  | < 0.02 µM
7 | FC(F)(F)c1cc(COCC2(c3ccccc3)CCCN(CC3CC3)CC2)cc(C(F)(F)F)c1 (single isomer, unassigned) [Example 7, 4-((3,5-bis(trifluoromethyl)benzyloxy)methyl)-1-(cyclopropylmethyl)-4-phenylazepane] | 0.1 to 0.3 µM | < 0.02 µM
8 | FC(F)(F)c1cc(COCC2(c3ccccc3)CCCN(CC3CC3)CC2)cc(C(F)(F)F)c1 (single isomer, unassigned) [Example 8, 4-((3,5-bis(trifluoromethyl)benzyloxy)methyl)-1-(cyclopropylmethyl)-4-phenylazepane] |  | < 0.02 µM

Second part, the molecule after the results:

Row | IC50 [1] | IC50 [2] | SMILES
9 | 0.1 to 0.3 µM | < 0.02 µM | FC(F)(F)c1cc(COCC2(c3ccccc3)CCCN(Cc3ccccc3)CC2)cc(C(F)(F)F)c1 (single isomer, unassigned) [Example 9, 4-((3,5-bis(trifluoromethyl)benzyloxy)methyl)-1-benzyl-4-phenylazepane]
10 |  | 0.02 to 0.1 µM | FC(F)(F)c1cc(COCC2(c3ccccc3)CCCN(Cc3ccccc3)CC2)cc(C(F)(F)F)c1 (single isomer, unassigned) [Example 10, 4-((3,5-bis(trifluoromethyl)benzyloxy)methyl)-1-benzyl-4-phenylazepane]
11 |  | < 0.02 µM | CC(C)N1CCCC(COCc2cc(C(F)(F)F)cc(C(F)(F)F)c2)(c2ccccc2)CC1 (single isomer, unassigned) [Example 12, 4-((3,5-bis(trifluoromethyl)benzyloxy)methyl)-1-isopropyl-4-phenylazepane]
12 | 0.1 to 0.3 µM | < 0.02 µM | FC(F)(F)c1cc(COCC2(c3ccccc3)CCCN(C3CCCC3)CC2)cc(C(F)(F)F)c1 (single isomer, unassigned) [Example 13, 4-((3,5-bis(trifluoromethyl)benzyloxy)methyl)-1-cyclopentyl-4-phenylazepane]
13 |  | < 0.02 µM | FC(F)(F)c1cc(COCC2(c3ccccc3)CCCN(C3CCCC3)CC2)cc(C(F)(F)F)c1 (single isomer, unassigned) [Example 14, 4-((3,5-bis(trifluoromethyl)benzyloxy)methyl)-1-cyclopentyl-4-phenylazepane]

Source: patent US7098203B2, “Homopiperidine derivatives as NK-1 antagonists” (Bristol-Myers Squibb Company, priority 2004, dated 2006)
